Measured values from US20120122936A1, “LEAVE-ON NONSOLID SKIN CONDITIONING COMPOSITIONS CONTAINING 12-[(12-HYDROXYOCTADECANOYL)OXY] OCTADECANOIC ACID” (CONOPCO, INC., D/B/A UNILEVER, priority 2010, published 2012).

Tests used:
[1] = tested on: primary human keratinocytes; experiment: Involucrin expression (differentiation) in primary human keratinocytes, Western blot; format: cell-based; conditions: for Involucrin expression (arbitrary unit) at day 1: day 1 (24 h), 0.1% DMSO control 27.85; for Involucrin expression (arbitrary unit) at day 2: day 2 (48 h), 0.1% DMSO control 33.91; for Effect on human keratinocyte differentiation (involucrin expression compared to vehicle control): vs 0.1% DMSO, day 2
Method: The effect of 12HSA and 12-[(12-hydroxyoctadecanoyl)oxy]octadecanoic acid on differentiation in primary human keratinocytes was evaluated.
The compounds were dissolved in DMSO at 10 mM as the initial stock solutions and then diluted to appropriate final concentrations, 0.1 μM, 1 μM, 10 μM for 12-[(12-hydroxyoctadecanoyl)oxy]octadecanoic acid and 1 μM, 10 μM for the monomer with culture medium for treatments. 0.1% DMSO was used as the vehicle control. Primary human keratinocytes (Passage 2) grown to 70% confluency in EpiLife medium (Gibco MEP1500CA, 0.06 mM Calcium), trypsinized, cell number counted and Re-suspended in medium to make final cell counts at 5×10^4/ml. 100, 000 cells seeded per well in a 6 well plate. The cells again grown to 70% confluency, and then treated with 12-HSA monomer, 12-[(12-hydroxyoctadecanoyl)oxy]octadecanoic acid, and 0.1% DMSO as control. Treated cells incubated for 24 h and 48 h, and harvested at the corresponding time points. Proteins were extracted from the cultures and protein concentration was quantified by Quick start Bradford dye reagent (BioRad #500-0205). 5 ug protein samples were subjected to 4-20% protein gel (BioRad Criterion #345-0034), separated by running gel at 175 Volt for about 1 hour. Proteins were transferred to PVDF membrane (iBlot Gel transfer stacks PVDF, Invitrogen IB4010-01). The PVDF membrane was blocked in 1% BSA/PBS for 30 min and incubated with involucrin primary antibody (1:4000 dilution) in 1% BSA/PBS at 4° C. O/N (Sigma 19018), washed three times with TBS-Tween (Sigma T-9039) for 15 min each. The membrane then incubated with a secondary antibody in 1% BSA/PBS at RT for 1 h (Cy5-conjugated Affipure Goat anti mouse IgG, Jackson ImmunoResearch Lab #115-175-003), washed three times with TBS-Tween for 15 min each, and scanned with Licor/Odyssey (Li-Cor Bioscience). The images obtained were analyzed for the involucrin bands for signal intensity by Odyssey v3.0 analysis program (Li-Cor Bioscience).

[2] = tested on: primary human neonatal fibroblasts; experiment: ATP production by primary human fibroblasts, CellTiter-Glo luminescent cell viability assay; format: cell-based; conditions: for Luminescence reading (average): 2 x 24 h dosing, 4 wells, 0.1% DMSO control 2245457; for Effect on fibroblast energy production (ATP, luminescence readings): statistically significant improvement at 100 μM
Method: The effect of 12HSA and 12-[(12-hydroxyoctadecanoyl)oxy]octadecanoic acid on ATP production by primary human fibroblasts was assayed.
The samples were prepared as in Example 2, except the final concentrations were at 0.1 μM, 1 μM, 10 μM, 100 μM for both compounds. Again 0.1% DMSO in media is used as the vehicle control. Primary human neonatal fibroblasts grown in DMEM medium (high glucose supplemented with 2 mM Lglutamine, 10% fetal bovine serum, antibiotic) to 70% confluency, trypsinized, and re-suspended in medium. 7,500 cells seeded per well in the inner 60 wells of a 96-well plate in the same DMEM medium and grown for 3 days. The medium removed and the cells washed with serum-free DMEM, and then dosed with 200 μl serum-free DMEM medium containing appropriate concentrations of the testing compounds. Each dosing was replicated in 4 wells. After 24 hours, test compound solution was removed and the cells were treated with a fresh solution of the same treatment. After another 24 hours, the ATP production of the cultures was assayed by CellTiter-Glo luminescent Cell viability assay (Promega #G7572) and luminescence readings measured. Average readings were calculated for every treatment.
Statistical analysis was done by student t-Test with the assumption that the two samples had two tailed distribution with equal variance.

[3] = Observation of mixtures with lipophilic cosmetically acceptable carriers (gelling vs flowable liquid); format: physicochemical; conditions: for Result of mixtures with indicated carriers: 10% in 90% carrier, summary of Table 3
Method: Various mixtures were prepared with common lipohilic cosmetically acceptable carrier that are liquid at temperatures up to 40° C. Observation were recorded in Table 3.

Row | Compound | Involucrin expression (arbitrary unit) at day 1 ([1]; 1 μM) | Involucrin expression (arbitrary unit) at day 2 ([1]; 1 μM) | Involucrin expression (arbitrary unit) at day 1 ([1]; 10 μM) | Involucrin expression (arbitrary unit) at day 2 ([1]; 10 μM) | Effect on human keratinocyte differentiation (involucrin expression compared to vehicle control) [1] | Luminescence reading (average) ([2]; 0.1 μM) | Luminescence reading (average) ([2]; 1 μM) | Luminescence reading (average) ([2]; 10 μM) | Luminescence reading (average) ([2]; 100 μM) | Effect on fibroblast energy production (ATP, luminescence readings) [2] | Observations ([3]; 10% in 90% DC200-10cS) | Observations ([3]; 10% in 90% Light Mineral Oil) | Observations ([3]; 10% in 90% Sunflower seed oil) | Observations ([3]; 10% in 90% Tween40) | Result of mixtures with indicated carriers [3] | Observations ([3]; 10% in 90% cyclomethicone-D5) | Observations ([3]; 10% in 90% isostearyl alcohol) | Observations ([3]; 10% in 90% oleic acid) | further results
1 | CCCCCCC(O)CCCCCCCCCCC(=O)OC(CCCCCC)CCCCCCCCCCC(=O)O (stereo not shown) [12-[(12-hydroxyoctadecanoyl)oxy]octadecanoic acid] | 36.67 arbitrary unit | 33.14 arbitrary unit | 33.77 arbitrary unit | 29.46 arbitrary unit | did not have an effect | 2261382 | 2550326 | 2594799 | 2794979 | stimulated fibroblast energy production | flowable | flowable | clear | clear | flowable, or even clear, liquids | flowable | clear | clear | Involucrin expression (arbitrary unit) at day 1 ([1]; 0.1 μM): 35.85 arbitrary unit; Involucrin expression (arbitrary unit) at day 2 ([1]; 0.1 μM): 32.61 arbitrary unit; Observations ([3]; 10% in 90% Isopropyl myristate): liquid
2 | CCCCCCC(O)CCCCCCCCCCC(=O)O (stereo not shown) [12HSA, 12-hydroxyoctadecanoic acid, reference compound] | 26.7 arbitrary unit | 56.03 arbitrary unit | 34.51 arbitrary unit | 69.52 arbitrary unit | stimulated human keratinocyte differentiation | 2359722 | 2398308 | 2304763 | 2151797 | did not | paste | hard gel | hard gel | gel | gelled the carrier | soft gel | gel | gel | Observations ([3]; 10% in 90% Isopropyl palmitate): hard gel
